The values that follow come from US12364719B2, “Bacillus subtilis strains improving animal performance parameters” (priority 2017, dated 2025).

This test has as its system Clostridium perfringens strain 56. The format is in vivo, Male Ross 308 broilers. The note with it: for Mean score (NE): 0-6 score.

SMILES strings stand for the structures. Like-named read-outs stand apart in the source and are kept apart here.

As to `CC1(C)S[C@@H]2[C@H](NC(=O)[C@H](N)c3ccc(O)cc3)C(=O)N2[C@H]1C(=O)O` [Amoxicillin], the “% NE (birds positive to macroscopic necrotic enteritis lesions)” value by setting is: (Day 25, lesion score 2, infected day 19-22) 44%; (Day 25 and 26 combined) 29%; (Day 26, lesion score 2, infected day 19-22) 14%. For the same compound, the “Mean score (NE)” value is, setting by setting: (Day 25 and 26 combined) 1.315; (Day 26) 1.07.
